Assay results taken from paper PMC3597726, “N-Substituted Benzyl Matrinic Acid Derivatives Inhibit Hepatitis C Virus (HCV) Replication through Down-Regulating Host Heat-Stress Cognate 70 (Hsc70) Expression” (PLoS ONE, 2013).
Entries after “also recorded” stand apart in the source; their conditions may differ. Read-outs that look alike come from different tables or passages of the source.

Experiments:
[1] = test system: HCV; conditions: Huh7.5 cells
Excerpt: To further confirm the mode of action for the activity against HCV, down-regulation of Hsc70 expression by 7c was also examined by Western Blot.

[2] = Single dose toxicity test in mice; conditions: for effect on body weight: i.g single dose 250, 500 or 1000 mg/kg (data not shown); for mortality: i.g single dose 250, 500 or 1000 mg/kg, 7 days; for LD50: oral (i.g) single dose, monitored 7 days
Description: Single dose toxicity tests for 7c and 7m were carried out in mice as well. After 7c or 7m was given by intragastric administration (i.g) at a dose of 250, 500 or 1000 mg/kg, the mice were closely monitored for 7 days.
Animals were purchased from the Institute of Laboratory Animal Sciences, Chinese Academy of Medical Sciences and Peking Union Medical College, Beijing, China. All experimental procedures were approved by Biomedical Ethics Committee of Chinese Academy of Medical Sciences of animal use and protection. The mice were cared according to the institutional guidelines of the Chinese Academy of Medical Sciences. Male and female KunMing mice with weight of 22.0±1.0 g were fed with regular chow and housed in an air-conditioned room. The mice were randomly divided into five groups with 10 mice each (five male plus five female). The each group of mice were administrated orally 7c and 7m at 0 (saline as control), 500 or 1000 mg/kg, respectively. The test compounds were given in a single-dosing. Body weight as well as survival was closely monitored.

[3] = test system: Huh7.5 cells; assay: Cytotoxicity assay (MTT) in Huh7.5 cells; assay type: cell-based, Human
Description: (§1) All of the synthesized compounds were examined for their anti-HCV activity and cytotoxicity in Huh 7.5 cells using specific real-time RT-PCR assay, as described in our previous publication. Anti-HCV activity was evaluated by measuring both EC50 (for anti-HCV activity) and CC50 (for cytotoxicity) values. As a key indication, the selectivity index (SI) was calculated as a ratio of CC50 to EC50. Anti-HCV activity of the study compound was estimated by combining its EC50 value with SI.
Huh7.5 cells were seeded into 96-well plates (Costar) at a density of 3×10^4 cells/cm^2. After 24 h incubation. Fresh culture medium containing test compounds at various concentrations were added. 72 h later, Cytotoxicity was evaluated with 3-(4,5-Dimethylthiazol-2-yl)-2,5-diphenyltetrazolium bromide (MTT).

[4] = test system: HCV NS3; assay: Intracellular HCV NS3 protein level in infected Huh7.5 cells (Western blot); assay type: cell-based, hepatitis C virus (HCV)
[5] = molecular target: T1, HCV NS3/4A protease (Hepatitis C virus genotype 2a, UniProt Q99IB8); assay type: biochemical; conditions: 250 µg/mL, in the lysates
T1 construct: HCV NS3/4A protease activity (Michaelis constant Km = 0.60 µM) in the lysates; endogenous in cells; host or cells: lysates
T1 sequence (Q99IB8 1662-1715): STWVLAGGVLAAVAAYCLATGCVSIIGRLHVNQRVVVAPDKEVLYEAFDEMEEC
T1 sequence (Q99IB8 1031-1661): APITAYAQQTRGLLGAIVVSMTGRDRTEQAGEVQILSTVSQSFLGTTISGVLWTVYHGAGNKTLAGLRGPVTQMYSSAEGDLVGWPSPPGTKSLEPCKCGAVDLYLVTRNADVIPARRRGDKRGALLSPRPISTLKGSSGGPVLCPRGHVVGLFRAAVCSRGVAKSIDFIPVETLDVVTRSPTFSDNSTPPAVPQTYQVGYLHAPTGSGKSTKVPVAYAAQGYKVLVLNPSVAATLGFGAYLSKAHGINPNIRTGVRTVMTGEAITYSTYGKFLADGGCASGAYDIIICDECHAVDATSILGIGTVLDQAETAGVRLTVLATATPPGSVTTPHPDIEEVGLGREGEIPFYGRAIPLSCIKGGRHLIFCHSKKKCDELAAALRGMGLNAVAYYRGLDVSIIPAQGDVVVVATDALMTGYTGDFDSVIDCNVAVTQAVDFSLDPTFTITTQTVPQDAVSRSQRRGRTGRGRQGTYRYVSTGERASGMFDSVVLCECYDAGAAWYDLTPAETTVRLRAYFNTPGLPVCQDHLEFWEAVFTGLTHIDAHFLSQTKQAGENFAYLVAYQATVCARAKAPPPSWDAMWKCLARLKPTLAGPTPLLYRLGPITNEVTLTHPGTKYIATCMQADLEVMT

[6] = Oral pharmacokinetics in male ICR mice; conditions: for MRT / t1/2 / AUC 0−t / Cmax / Tmax: oral (ig) 25 mg/kg; for Cmax / Tmax: plasma
Description: The study compounds were given to male ICR mice via oral (ig, 25 mg/kg) route.
Male male ICR mice (20–40 g) were obtained from SLAC Laboratory Animal Inc. (Shanghai, China). Three male ICR mice were used in each study. Each of them was dosed with a tested compound at 25 mg/kg via oral administration. Nine blood samples were collected at 0, 0.25, 0.50, 1.0, 2.0, 4.0, 6.0 and 24 h and were immediately centrifuged to separate the plasma fractions. The separated plasma samples were stored at –20°C for analysis. Concentration-versus-time profiles were obtained for each analyte, and standard non-compartmental analysis was performed on the data using WinNonlin software, version 5.3, to recover the AUC and other non-compartmental parameters.

[7] = test system: HCV (recombination virus strain J6/JFH/JC); assay: Anti-HCV activity in Huh7.5 cells, intracellular HCV RNA by real-time RT-PCR; assay type: cell-based, hepatitis C virus (HCV); conditions: for EC50: anti-HCV activity, 72 h, HCV RNA by RT-PCR
Description: as §1
Huh7.5 cells were seeded into 96-well or 6-well plates (Costar) at a density of 3×10^4 cells/cm^2. After 24 h incubation, the cells were infected with HCV viral stock (recombination virus strain J6/JFH/JC, 45 IU/cell) and simultaneously treated with the test compounds at various concentrations.
(§2) Concentrations or solvent as the control. The culture medium was removed after 72 h incubation, the intracellular total RNA (in 96-well plates) was extracted with RNeasy Mini Kit (Qiagen), and total intracellular proteins (in 6-well plates) were extracted with Cyto-Buster Protein Extraction Reagent added with 1 mM protease inhibitor cocktail. The intracellular HCV RNA was quantified with a real time one-step reverse-transcription polymerase chain reaction (RT-PCR). HCV core protein was detected with western blot (see below).

[8] = test system: Hsc70; assay: Hsc70 protein expression in Huh7.5 cells (Western blot); assay type: cell-based, Human; conditions: Huh7.5 cells, 31.25, 62.5, 125 and 250 µg/mL, 72 h
Description: as §2
The extracted total protein were denatured by adding 5× loading buffer (250 mM Tris-HCl, pH 6.8, 5% dithiothreitol, 10% SDS, 0.5% bromophenol blue, 50% glycerol), followed by boiling for 10 min. Proteins were analyzed with SDS-PAGE, then transfered onto nitrocellulose membranes by electroblotter. The membranes were blocked in 5% nonfat dry milk in TBS-T solusion (20 mM Tris, 150 mM NaCl, 0.1% Tween-20) for 1 h, and washed three times for 10 min each in the TBS-T. Membrane samples were probed with monoclonal antibody specific for protein of HCV core or Hsc70. As a control, monoclonal antibody to actin was used. […] Protein was detected using Immbilon Western Chemiluminescent HRP Substrate (Millipore Inc.) with Alpha Innotech Focus and Image Acquisition.

[9] = cytotoxicity, Huh7.5 cells, MTT, 72 h, read-out: CC50

SMILES | EC50 [7] | CC50 [3] | SI (selectivity index, CC50/EC50) [7] | also measured
Cc1ccc(CN2CC3CCCN4CCCC(C2CCCC(=O)O)C34)cc1 (stereo not drawn) [Compound 7c, 12-N-4-Methylbenzyl matrinic acid] | 51.1 µM |  |  | therapeutic efficacy before, at and after infection [1]: anti-HCV pattern close to that of 7m; effect on body weight [2]: no effect; mortality [2]: No mouse died; LD50 [2]: > 1000 mg/kg; CC50 [3, 9]: > 2700 µM; HCV NS3 level ([4]; Huh7.5 cells, 62.5 µg/mL): significantly reduced; intracellular HCV-NS3 protein ([4]; Huh7.5 cells, 31.25, 62.5, 125 and 250 µg/mL, 72 h): decreased dose-dependently; HCV NS3/4A protease activity after treatment [5]: not altered; MRT [6]: 1.68 h; t1/2 [6]: 1.5 h; AUC 0−t ([6]; 0 to 24 h): 13.4 µM·h; Cmax [6]: 13.2 µM; Tmax [6]: 0.25 h; improvement in anti-HCV activity as compared to 1 [7]: 2 fold; Hsc70 protein expression [8]: afforded activity in down-regulating Hsc70 protein expression; also recorded: decreased dose-dependently
O=C(O)CCCC1C2CCCN3CCCC(CN1Cc1ccc(Cl)cc1Cl)C23 (stereo not drawn) [Compound 7k, 12-N-2,4-Dichlorobenzyl matrinic acid] | 460 µM | 578 µM | 1.3 | 
Cc1cccc(CN2C[C@@H]3CCCN4CCC[C@@H]([C@H]34)[C@H]2CCCC(=O)O)c1 [Compound 7b, 12-N-3-Methylbenzyl matrinic acid] | 266 µM | 2390 µM | 9.0 | 
O=C(O)CCCC1C2CCCN3CCCC(CN1Cc1cccc4ccccc14)C23 (stereo not drawn) [Compound 7o, 12-N-1-Naphthylmethylenyl matrinic acid] | > 821 µM | 1300 µM | <1.6 | anti-HCV activity (in words) [7]: lost the activity completely
O=C(O)CCCC1C2CCCN3CCCC(CN1Cc1ccc(Br)cc1)C23 (stereo not drawn) [Compound 7l, 12-N-4-Bromobenzyl matrinic acid] | 119 µM | 1230 µM | 10.3 | 
O=C(O)CCCC1C2CCCN3CCCC(CN1Cc1ccccc1F)C23 (stereo not drawn) [Compound 12d, 12-N-2-Flurobenzyl sophoridinic acid] | > 890 µM | 1550 µM | <1.7 | 
O=C(O)CCC[C@@H]1[C@H]2CCCN3CCC[C@@H](CN1Cc1ccc(OC(F)(F)F)cc1)[C@@H]23 [Compound 7n, 12-N-4-Trifluoromethoxybenzyl matrinic acid] | 88.5 µM | 1380 µM | 15.5 | 
C=Cc1ccc(CN2C[C@@H]3CCCN4CCC[C@@H]([C@H]34)[C@H]2CCCC(=O)O)cc1 [Compound 7m, 12-N-4-Vinylbenzyl matrinic acid] | 4.7 µM |  | 39.2 | therapeutic efficacy before, at and after infection [1]: effective before, at and after HCV infection; effect on body weight [2]: no effect; mortality [2]: No mouse died; LD50 [2]: over 1000 mg/kg; CC50 [3, 9]: 184 µM; HCV NS3/4A protease activity after treatment [5]: not altered; Cmax relative to that of 7c ([6]; oral 25 mg/kg): 1.8 fold; AUC relative to that of 7c ([6]; oral 25 mg/kg, 0 to 24 h): approximately 2 fold; MRT [6]: 1.65 h; t1/2 [6]: 2.01 h; AUC 0−t ([6]; 0 to 24 h): 25.9 µM·h; Cmax [6]: 23.2 µM; Tmax [6]: 0.5 h
Cc1ccccc1CN1CC2CCCN3CCCC(C1CCCC(=O)O)C23 (stereo not drawn) [Compound 7a, 12-N-2-Methylbenzyl matrinic acid] | 203 µM | 1130 µM | 5.6 | 
O=C(O)CCCC1C2CCCN3CCCC(CN1Cc1cccc(F)c1)C23 (stereo not drawn) [Compound 7e, 12-N-3-Fluorobenzyl matrinic acid] | 168 µM | 1410 µM | 8.4 | 
O=C(O)CCCC1C2CCCN3CCCC(CN1Cc1ccccc1Cl)C23 (stereo not drawn) [Compound 7g, 12-N-2-Chlorobenzyl matrinic acid] | 176 µM | 1290 µM | 7.3 | 
COc1ccc(CN2CC3CCCN4CCCC(C2CCCC(=O)O)C34)cc1 (stereo not drawn) [Compound 12a, 12-N-4-Methoxybenzyl sophoridinic acid] | 57.5 µM | 1060 µM | 18.5 | 
O=C(O)CCCC1C2CCCN3CCCC(CN1Cc1cccc(Cl)c1)C23 (stereo not drawn) [Compound 7h, 12-N-3-Chlorobenzyl matrinic acid] | 88.5 µM | > 2560 µM | >28.9 | anti-HCV activity (in words) [7]: slight improvement in comparison to the lead
Cc1ccc(CN2CC3CCCN4CCCC(C2CCCC(=O)O)C34)cc1 (stereo not drawn) [Compound 12c, 12-N-4-Methylbenzyl sophoridinic acid] | 503 µM | 2200 µM | 4.4 | 
O=C(O)CCCC1C2CCCN3CCCC(CN1Cc1ccc(Cl)c(Cl)c1)C23 (stereo not drawn) [Compound 7j, 12-N-3,4-Dichlorobenzyl matrinic acid] | 268 µM | 1010 µM | 3.7 | 
O=C(O)CCCC1C2CCCN3CCCC(CN1Cc1ccc(OC(F)(F)F)cc1)C23 (stereo not drawn) [Compound 12f, 12-N-4-Trifluoromethoxybenzyl sophoridinic acid] | 11.1 µM | 141 µM | 12.7 | 
O=C(O)CCCC1C2CCCN3CCCC(CN1Cc1ccc(F)cc1)C23 (stereo not drawn) [Compound 12e, 12-N-4-Flurobenzyl sophoridinic acid] | 108 µM | 1120 µM | 10.4 | 
O=C(O)CCCC1C2CCCN3CCCC(CN1Cc1ccc(Cl)cc1)C23 (stereo not drawn) [Compound 7i, 12-N-4-Chlorobenzyl matrinic acid] | 136 µM | 2500 µM | 18.4 | 
Cc1cccc(CN2CC3CCCN4CCCC(C2CCCC(=O)O)C34)c1 (stereo not drawn) [Compound 12b, 12-N-3-Methylbenzyl sophoridinic acid] | 453 µM | 1320 µM | 2.9 | 
O=C(O)CCC[C@@H]1[C@H]2CCCN3CCC[C@@H](CN1Cc1ccccc1F)[C@@H]23 [Compound 7d, 12-N-2-Fluorobenzyl matrinic acid] | 87.4 µM | 1660 µM | 19.0 | 
O=C(O)CCCC1C2CCCN3CCCC(CN1Cc1ccc(F)cc1)C23 (stereo not drawn) [Compound 7f, 12-N-4-Fluorobenzyl matrinic acid] | 176 µM | > 2670 µM | >15.1 | 
